The assay addresses T1, Monocarboxylate transporter 1 (MCT1) (Mus musculus, UniProt P53986).
T1 sequence (P53986 1-493): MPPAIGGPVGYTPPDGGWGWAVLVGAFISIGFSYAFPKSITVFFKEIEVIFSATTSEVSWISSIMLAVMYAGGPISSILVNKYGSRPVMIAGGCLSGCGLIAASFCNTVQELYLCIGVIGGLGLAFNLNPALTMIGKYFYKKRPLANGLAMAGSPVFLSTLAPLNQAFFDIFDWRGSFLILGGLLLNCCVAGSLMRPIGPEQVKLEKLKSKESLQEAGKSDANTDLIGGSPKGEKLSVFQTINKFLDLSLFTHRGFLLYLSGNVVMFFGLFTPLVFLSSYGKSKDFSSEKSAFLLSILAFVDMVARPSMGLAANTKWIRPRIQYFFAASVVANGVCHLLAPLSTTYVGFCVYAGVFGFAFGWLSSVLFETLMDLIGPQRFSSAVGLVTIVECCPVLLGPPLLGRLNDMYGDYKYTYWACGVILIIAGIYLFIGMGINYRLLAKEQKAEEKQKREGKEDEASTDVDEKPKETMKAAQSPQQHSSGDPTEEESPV
T1 sequence (P18572 22-389 partner): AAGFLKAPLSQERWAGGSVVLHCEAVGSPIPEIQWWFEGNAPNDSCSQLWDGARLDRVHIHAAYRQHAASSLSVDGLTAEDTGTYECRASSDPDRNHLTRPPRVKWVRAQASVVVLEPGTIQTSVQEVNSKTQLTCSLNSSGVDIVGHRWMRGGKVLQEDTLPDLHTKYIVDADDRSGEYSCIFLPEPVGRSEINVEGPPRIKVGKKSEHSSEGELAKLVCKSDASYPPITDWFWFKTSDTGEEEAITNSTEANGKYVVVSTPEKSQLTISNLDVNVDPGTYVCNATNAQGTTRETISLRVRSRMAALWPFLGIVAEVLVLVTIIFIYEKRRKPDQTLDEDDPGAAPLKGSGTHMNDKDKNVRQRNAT
The assay can be described thus: inhibition of radiolabeled L-lactate uptake in 4T1 cells. The class given is cell-based.

Molecules are shown by their SMILES.

Compound `Cc1[nH]nc(C(F)(F)F)c1Cc1sc2c(c1C(=O)N1C[C@](C)(O)CO1)c(=O)n(C)c(=O)n2C(C)C` [AZD3965] returned a 50% inhibitory concentration (IC50) of 1.7e-05 ± 3.6e-06 mM.

Turning to `N#C/C(=C\c1ccc(O)cc1)C(=O)O` [CHC, α-cyano-4-hydroxycinnamic acid], the half-inhibitory concentration (IC50) was 7.57 ± 15.2 mM.

In general, IC50 refers to the point on the concentration scale where inhibition reaches its midpoint. The low end stands for greater potency, the high end for weaker potency.

The values above are taken from publication PMC8066402 (The AAPS journal, 2020).
